Experimental data reported in ChEMBL document CHEMBL1201862, “PubChem BioAssay data set” (2004).
Where a name gives a salt, the structure may show the parent alone.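 These data come from cells grown in 96-well plates and exposed to compound for 48 hours at five concentrations. GI50 marks 50% less growth.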 The source made the active and inactive calls. Cut-off read from the data, not from the text of the source: active = GI50 up to about 1.1 µM and inactive = higher.

What was measured:
Assay in all cases: growth of human tumour cells (NCI), 48 h
[1] = system: HOP-92
[2] = system: NCI-H522
[3] = system: SNB-78
[4] = system: SK-MEL-28
[5] = system: LXFL 529
[6] = system: RPMI-8226
[7] = system: A549
[8] = system: UACC-62
[9] = system: ACHN
[10] = system: UO-31
[11] = system: KM12
[12] = system: OVCAR-4
[13] = system: NCI-H23
[14] = system: SF-268
[15] = system: UACC-257
[16] = system: DMS-114
[17] = system: SK-MEL-5
[18] = system: SK-MEL-2
[19] = system: TK-10
[20] = system: Malme-3M
[21] = system: MOLT-4
[22] = system: RXF 393
[23] = system: HL-60
[24] = system: EKVX
[25] = system: XF498
[26] = system: SNB-75
[27] = system: SK-OV-3
[28] = system: OVCAR-8
[29] = system: M19-MEL
[30] = system: 786-0
[31] = system: HCC 2998
[32] = system: K562
[33] = system: HT-29
[34] = system: MDA-MB-231
[35] = system: CCRF-CEM
[36] = system: LOX IMVI
[37] = system: CAKI-1
[38] = system: Hs-578T
[39] = system: MCF7
[40] = system: DLD-1
[41] = system: DMS-273
[42] = system: PC-3
[43] = system: NCI/ADR-RES
[44] = system: BT-549
[45] = system: T47D
[46] = system: KM-20L2
[47] = system: SF-539
[48] = system: HCT-116
[49] = system: NCI-H460
[50] = system: SNB-19
[51] = system: COLO 205
[52] = system: IGROV-1
[53] = system: M14
[54] = system: MDA-N
[55] = system: NCI-H226
[56] = system: DU-145
[57] = system: A498
[58] = system: HOP-62
[59] = system: SR
[60] = system: SN12C
[61] = system: MDA-MB-435
[62] = system: SF-295
[63] = system: OVCAR-3
[64] = system: OVCAR-5
[65] = system: HCT-15
[66] = system: U-251
[67] = system: SW-620

Q: `COc1ccc(CNc2cc(OC)cc(OC)c2)cc1` was tested. Which GI50 [1] did it give?
A: 65.5 µM (inactive)

Q: And the GI50 [2]?
A: 35.8 µM (inactive)

Q: And the GI50 [3]?
A: 38.1 µM (inactive)

Q: And the GI50 [4]?
A: 44.4 µM (inactive)

Q: What about the GI50 [5] of the same molecule?
A: 85.7 µM (inactive)

Q: And the GI50 [6]?
A: 58.9 µM (inactive)

Q: What about the GI50 [7] of the same molecule?
A: > 100 µM (inactive)

Q: What about the GI50 [8] of the same molecule?
A: 87.7 µM (inactive)

Q: And the GI50 [9]?
A: > 100 µM (inactive)

Q: What about the GI50 [10] of the same molecule?
A: 49.2 µM (inactive)

Q: What about the GI50 [11] of the same molecule?
A: 84.3 µM (inactive)

Q: And the GI50 [12]?
A: 77.1 µM (inactive)

Q: What about the GI50 [13] of the same molecule?
A: > 80.2 µM (inactive)

Q: What about the GI50 [14] of the same molecule?
A: > 62.1 µM (inactive)

Q: What about the GI50 [15] of the same molecule?
A: > 91.8 µM (inactive)

Q: And the GI50 [16]?
A: 49 µM (inactive)

Q: What about the GI50 [17] of the same molecule?
A: 60.5 µM (inactive)

Q: What about the GI50 [18] of the same molecule?
A: > 85.7 µM (inactive)

Q: And the GI50 [19]?
A: > 100 µM (inactive)

Q: What about the GI50 [20] of the same molecule?
A: > 72.8 µM (inactive)

Q: And the GI50 [21]?
A: > 81.8 µM (inactive)

Q: What about the GI50 [22] of the same molecule?
A: > 68.4 µM (inactive)

Q: What about the GI50 [23] of the same molecule?
A: > 46.5 µM (inactive)

Q: And the GI50 [24]?
A: > 76.6 µM (inactive)

Q: What about the GI50 [25] of the same molecule?
A: > 100 µM (inactive)

Q: What about the GI50 [26] of the same molecule?
A: > 42 µM (inactive)

Q: What about the GI50 [27] of the same molecule?
A: > 80 µM (inactive)

Q: And the GI50 [28]?
A: > 69.8 µM (inactive)

Q: What about the GI50 [29] of the same molecule?
A: > 100 µM (inactive)

Q: And the GI50 [30]?
A: > 52.2 µM (inactive)

Q: And the GI50 [31]?
A: > 100 µM (inactive)

Q: What about the GI50 [32] of the same molecule?
A: 22.4 µM (inactive)

Q: With `C=C(C)[C@H]1Cc2c(ccc3c2O[C@@H]2COc4cc(OC)c(OC)cc4[C@@H]2C3=O)O1` [ROTENONE] as the molecule, how does the GI50 [1] read?
A: 0.116 µM (active)

Q: What about the GI50 [33] of the same molecule?
A: 0.127 µM (active)

Q: And the GI50 [2]?
A: 0.0247 µM (active)

Q: What about the GI50 [3] of the same molecule?
A: 0.456 µM (active)

Q: What about the GI50 [34] of the same molecule?
A: 1.02 µM (active)

Q: What about the GI50 [4] of the same molecule?
A: 0.162 µM (active)

Q: And the GI50 [5]?
A: 0.0368 µM (active)

Q: What about the GI50 [6] of the same molecule?
A: 0.0575 µM (active)

Q: What about the GI50 [7] of the same molecule?
A: 0.0785 µM (active)

Q: And the GI50 [35]?
A: 0.951 µM (active)

Q: And the GI50 [8]?
A: 0.0597 µM (active)

Q: And the GI50 [36]?
A: 0.0624 µM (active)

Q: And the GI50 [9]?
A: 0.0522 µM (active)

Q: And the GI50 [10]?
A: 0.131 µM (active)

Q: And the GI50 [11]?
A: 0.0897 µM (active)

Q: What about the GI50 [12] of the same molecule?
A: 0.577 µM (active)

Q: What about the GI50 [37] of the same molecule?
A: 0.185 µM (active)

Q: And the GI50 [38]?
A: 0.0785 µM (active)

Q: What about the GI50 [13] of the same molecule?
A: 0.0258 µM (active)

Q: And the GI50 [14]?
A: 0.191 µM (active)

Q: What about the GI50 [39] of the same molecule?
A: 0.281 µM (active)

Q: And the GI50 [40]?
A: 0.241 µM (active)

Q: What about the GI50 [41] of the same molecule?
A: 0.0378 µM (active)

Q: And the GI50 [42]?
A: 0.155 µM (active)

Q: And the GI50 [15]?
A: 0.0516 µM (active)

Q: And the GI50 [43]?
A: 0.0635 µM (active)

Q: What about the GI50 [16] of the same molecule?
A: < 0.01 µM (active)

Q: And the GI50 [17]?
A: 0.0203 µM (active)

Q: And the GI50 [44]?
A: 0.164 µM (active)

Q: And the GI50 [45]?
A: 0.0989 µM (active)

Q: What about the GI50 [46] of the same molecule?
A: 0.128 µM (active)

Q: What about the GI50 [18] of the same molecule?
A: 0.171 µM (active)

Q: What about the GI50 [47] of the same molecule?
A: 0.128 µM (active)

Q: What about the GI50 [19] of the same molecule?
A: 0.229 µM (active)

Q: What about the GI50 [48] of the same molecule?
A: 0.0618 µM (active)

Q: What about the GI50 [20] of the same molecule?
A: 0.0762 µM (active)

Q: And the GI50 [21]?
A: 0.693 µM (active)

Q: What about the GI50 [49] of the same molecule?
A: 0.0891 µM (active)

Q: And the GI50 [22]?
A: 0.0836 µM (active)

Q: And the GI50 [50]?
A: 0.327 µM (active)

Q: What about the GI50 [51] of the same molecule?
A: 0.118 µM (active)

Q: What about the GI50 [23] of the same molecule?
A: 0.0611 µM (active)

Q: And the GI50 [52]?
A: 0.126 µM (active)

Q: What about the GI50 [53] of the same molecule?
A: 0.21 µM (active)

Q: What about the GI50 [54] of the same molecule?
A: 0.0423 µM (active)

Q: What about the GI50 [55] of the same molecule?
A: 0.177 µM (active)

Q: What about the GI50 [24] of the same molecule?
A: 0.736 µM (active)

Q: What about the GI50 [25] of the same molecule?
A: 0.055 µM (active)

Q: And the GI50 [56]?
A: 0.133 µM (active)

Q: And the GI50 [57]?
A: 0.335 µM (active)

Q: And the GI50 [58]?
A: 0.168 µM (active)

Q: What about the GI50 [26] of the same molecule?
A: 0.152 µM (active)

Q: What about the GI50 [59] of the same molecule?
A: 0.617 µM (active)

Q: What about the GI50 [60] of the same molecule?
A: 0.404 µM (active)

Q: What about the GI50 [61] of the same molecule?
A: 0.0206 µM (active)

Q: And the GI50 [62]?
A: 0.0399 µM (active)

Q: And the GI50 [63]?
A: 0.0566 µM (active)

Q: What about the GI50 [64] of the same molecule?
A: 2.55 µM (inactive)

Q: And the GI50 [27]?
A: 0.206 µM (active)

Q: What about the GI50 [65] of the same molecule?
A: 0.122 µM

Q: What about the GI50 [66] of the same molecule?
A: 0.224 µM (active)

Q: What about the GI50 [28] of the same molecule?
A: 0.257 µM (active)

Q: What about the GI50 [29] of the same molecule?
A: 0.0559 µM (active)

Q: What about the GI50 [30] of the same molecule?
A: 0.236 µM (active)

Q: What about the GI50 [31] of the same molecule?
A: 0.316 µM (active)

Q: And the GI50 [67]?
A: 0.131 µM (active)

Q: What about the GI50 [32] of the same molecule?
A: 0.0929 µM (active)

Q: Which GI50 [1] does the source give for `COc1ccc2cc3[n+](cc2c1OC)CCc1cc2c(cc1-3)OCO2` [BERBERINE SULFATE] here?
A: 23.6 µM (inactive)

Q: And the GI50 [33]?
A: 32.6 µM (inactive)

Q: And the GI50 [3]?
A: 34.4 µM (inactive)

Q: What about the GI50 [4] of the same molecule?
A: 19.3 µM (inactive)

Q: What about the GI50 [5] of the same molecule?
A: 4.37 µM (inactive)

Q: What about the GI50 [35] of the same molecule?
A: 10.5 µM (inactive)

Q: What about the GI50 [8] of the same molecule?
A: 17.8 µM (inactive)

Q: What about the GI50 [36] of the same molecule?
A: 43.1 µM (inactive)

Q: What about the GI50 [11] of the same molecule?
A: 4.88 µM (inactive)

Q: And the GI50 [13]?
A: 8.34 µM (inactive)

Q: What about the GI50 [14] of the same molecule?
A: 6.15 µM (inactive)

Q: And the GI50 [41]?
A: 17.2 µM (inactive)

Q: And the GI50 [16]?
A: 4.33 µM (inactive)

Q: What about the GI50 [17] of the same molecule?
A: 5.07 µM (inactive)

Q: What about the GI50 [46] of the same molecule?
A: 30.8 µM (inactive)

Q: What about the GI50 [18] of the same molecule?
A: 15.5 µM (inactive)

Q: What about the GI50 [47] of the same molecule?
A: 33.8 µM (inactive)

Q: What about the GI50 [19] of the same molecule?
A: > 100 µM (inactive)

Q: And the GI50 [20]?
A: 9.62 µM (inactive)

Q: What about the GI50 [49] of the same molecule?
A: 17.9 µM (inactive)

Q: And the GI50 [50]?
A: 8.13 µM (inactive)

Q: And the GI50 [23]?
A: 14 µM (inactive)

Q: And the GI50 [52]?
A: 36 µM (inactive)

Q: What about the GI50 [53] of the same molecule?
A: 32.5 µM (inactive)

Q: What about the GI50 [25] of the same molecule?
A: 14 µM (inactive)

Q: And the GI50 [57]?
A: > 100 µM (inactive)

Q: And the GI50 [26]?
A: 27.5 µM (inactive)

Q: What about the GI50 [64] of the same molecule?
A: > 91.8 µM (inactive)

Q: What about the GI50 [27] of the same molecule?
A: > 80.9 µM (inactive)

Q: What about the GI50 [28] of the same molecule?
A: 18.1 µM (inactive)

Q: And the GI50 [29]?
A: 7.6 µM (inactive)

Q: What about the GI50 [30] of the same molecule?
A: 51.5 µM (inactive)

Q: What about the GI50 [67] of the same molecule?
A: 30.1 µM (inactive)

Q: And the GI50 [32]?
A: 14.1 µM (inactive)
